Key:
Wistar rats = assay: Muscle mass (soleus weight) in TNF-α-induced muscular atrophy animal model; assay type: in vivo; conditions: 50 mg/kg body weight once a day for 8 weeks
Protocol: Wistar rats, aged five weeks, were acclimatized for one week and supplied with 100 ng/g of TNF-α for 2 weeks to induce muscular atrophy. The animals were randomly divided into a total of 5 groups, 8 animals per group, depending on their weight. Each of gangliosides GM3, GM1, GD1a, GT1b, and GQ1b (each 50 mg/kg body weight) as experimental groups was suspended in 0.25% carboxymethylcellulose. The suspension was administered at a given time once a day for 8 weeks. A group administered the same amounts of 0.25% carboxymethyl cellulose and TNF-α ingested by each experimental group was used as a control.
After administration of the sample for 8 weeks, the right soleus was dissected and its weight was measured with a microbalance (Mettler PE160, USA).

mTOR = mTOR Sandwich ELISA in L6 myotubes (activity for myogenic induction); assay type: cell-based; conditions: 1 μM or 5 μM, 12-h culture, *P<0.05
Protocol: The mTOR protein is known to induce the activation of proteins involved in muscle protein synthesis and an increase in muscle mass in the PI3K/Akt signaling pathway in muscle cells when phosphorylated and activated. Thus, the activity of mTOR was confirmed using an mTOR Sandwich ELISA kit (Cell Signaling Technology, Beverly, MA, USA) to determine the activity of ganglioside GM3 for myogenic induction.
L6 myoblasts (ATCC; Manassas, VA, USA) were seeded with Dulbecco's modified Eagle's media (DMEM; Hyclone) supplemented with 10% fetal bovine serum (FBS; Hyclone, Logan, UT, USA) in a 6-well plate at a density of 1×10^5 cells/well, followed by culture for 24 h. The media in the wells were replaced with DMEM (Hyclone) supplemented with 2% horse serum (HS; Hyclone), followed by culture for additional 6 days to differentiate the L6 cells into myotubes. Then, cells were treated with ganglioside GM3 (Cayman, Ann Arbor, MI, USA) at a concentration of 1 μM or 5 μM. After 12-h culture, cells were lysed by treatment with a cell lysis buffer. Proteins in the cell lysate were quantified by the Bradford method (Bio-Rad Laboratories Inc., Hercules, CA, USA) and the concentration of the cell lysate was then adjusted to 1 mg/mL. The cell lysate was plated in microwells bound with anti-mTOR antibody (50 μL/well) and cultured at 37° C. for 2 h. Cells were washed a total of 4 times with a washing buffer, treated with a detection antibody, and cultured at 37° C. for 1 h, rewashed a total of 4 times with a washing buffer, added with a horseradish peroxidase (HRP)-conjugated secondary antibody, and cultured at 37° C. for 30 min. Finally, after washing a total of 4 times with a washing buffer, TMB substrate was added to each well. After culture at 37° C. for 10 min, a stop solution was added to stop the TMB reaction. 2 min later, absorbance was measured at a wavelength of 450 nm to determine the level of mTOR in the myotubes treated with ganglioside GM3.
The procedure of Example 1 was repeated except that cells were treated with ganglioside GM1 (Cayman) at a concentration of 15 μM or 25 μM to examine the activity of the ganglioside for myogenic induction.
The procedure of Example 1 was repeated except that cells were treated with ganglioside GD1a (Cayman) at a concentration of 1 μM or 3 μM to examine the activity of the ganglioside for myogenic induction.
The procedure of Example 1 was repeated except that cells were treated with each of gangliosides GT1b and GQ1b (Cayman) at a concentration of 1 μM to examine the activity of the ganglioside for myogenic induction.

atrogin-1 = assay: RT-PCR of muscle degrading protein mRNA in TNF-α-treated L6 myotubes: atrogin-1; assay type: cell-based; conditions: 50 ng/mL TNF-α, 1 μM or 5 μM
Protocol: (§1) L6 myoblasts (ATCC) were seeded with DMEM (Hyclone) supplemented with 10% FBS (Hyclone) in a 6-well plate at a density of 1×10^5 cells/well, followed by culture. When the cultured cells reached a confluency of ˜80-85% per well, the media in the wells were replaced with DMEM (Hyclone) supplemented with 2% HS (Hyclone), followed by culture for additional 6 days to induce differentiation into myotubes. During culture for 6 days, the culture media were changed once every other day a total of 3 times. The differentiation-induced cells were harvested and the cell media were replaced with DMEM supplemented with 50 ng/mL TNF-α (PeproTech) in which ganglioside GM3 (Cayman) was dissolved at a concentration of 1 μM or 5 μM. A group treated with 0.01% DMSO instead of the sample was used as a control. Total RNA was isolated from cells using TRIzol reagent (Takara, Kyoto, Japan). The isolated total RNA was quantified using NanoDrop 1000 (Thermo Fisher Scientific Inc., Waltham, MA, USA). 16 μL of the RNA was synthesized into cDNA using Reverse Transcriptase Premix (ELPIS-Biotech) and a PCR system (Gene Amp PCR System 2700; Applied Biosystems, Foster City, CA, USA) at 42° C. for 55 min and 70° C. for 15 min. 3 μL of the synthesized cDNA, the specific primers shown in Table 1 (Bioneer, Daej eon, Korea), and PCR premix (ELPIS-Biotech) were mixed and PCR was repeated 30 times at 95° C. for 30 sec, 60° C. for 1 min, and 72° C. for 1 min. After PCR amplification, cDNA was separated by electrophoresis on a 1.5% agarose gel and the cDNA bands were visualized using a G;BOX EF imaging system (Syngene).
(§2) The procedure of Example 8 was repeated except that cells were treated with ganglioside GM1 (Cayman) at a concentration of 15 μM or 25 μM to investigate the mRNA transcription and expression levels of atrogin-1 and MuRF1 as muscle degrading proteins.
(§3) The procedure of Example 8 was repeated except that cells were treated with ganglioside GD1a (Cayman) at a concentration of 1 μM or 3 μM to investigate the mRNA transcription and expression levels of atrogin-1 and MuRF1 as muscle protein degradation-related enzymes.
(§4) The procedure of Example 8 was repeated except that cells were treated with each of gangliosides GT1b and GQ1b (Cayman) at a concentration of 1 μM to investigate the mRNA transcription and expression levels of atrogin-1 and MuRF1 as muscle protein degradation-related enzymes.

p-mTOR = assay: Western blot of mRNA translation biomarkers in TNF-α-treated L6 myotubes: p-mTOR; assay type: cell-based; conditions: 50 ng/mL TNF-α, 1 μM or 5 μM
Protocol: (§5) L6 myoblasts (ATCC) were seeded with DMEM (Hyclone) supplemented with 10% FBS (Hyclone) in a 6-well plate at a density of 1×10^5 cells/well, followed by culture. When the cultured cells reached a confluency of ˜80-85% per well, the media in the wells were replaced with DMEM (Hyclone) supplemented with 2% HS (Hyclone), followed by culture for additional 6 days to induce differentiation into myotubes. During culture for 6 days, the culture media were changed once every other day a total of 3 times. […] A group treated with 0.01% DMSO instead of the sample was used as a control. Cells were lysed with NP-40 buffer (ELPIS-Biotech, Daej eon, Korea) with a protease inhibitor cocktail (Sigma-Aldrich, St. Louis, MO, USA) and centrifuged at 13,000 rpm for 10 min. The cell lysate was obtained from the supernatant. The concentration of proteins in the supernatant was determined by the Bradford method (Bio-Rad Laboratories Inc.). Proteins at a certain concentration were heated for 5 min and separated by SDS-PAGE electrophoresis. The separated proteins were transferred to nitrocellulose membranes. Then, p-mTOR, mTOR, p-p70S6K, p70S6K, p-4EBP1, 4EBP1, and alpha-tubulin primary antibodies (Cell signaling technology, Beverly, MA, USA) were diluted at a ratio of 1:1000 with 2.5% bovine serum albumin (BSA; Bioworld, Dubin, OH, USA) and incubated with the proteins transferred to the nitrocellulose membranes at room temperature for 20 h. After incubation of the primary antibodies, the nitrocellulose membranes were washed 3 times with Tris-buffer saline Tween 20 (TBST) for 10 min. After washing, an anti-rabbit secondary antibody (Bethyl Laboratories, Inc., Montgomery, TA, USA) conjugated with horseradish peroxidase recognizing the primary antibodies was diluted 1:5000 with 2.5% BSA (Bioworld) and incubated with the nitrocellulose membranes at room temperature for 2 h. […]
(§6) Protein bands detected through antibody binding were developed using an ECL western blot detection reagent (Amersham, Tokyo, Japan) and visualized using a G;BOX EF imaging system (Syngene, Cambridge, UK). […]

p-p70S6K = assay: Western blot of mRNA translation biomarkers in TNF-α-treated L6 myotubes: p-p70S6K; assay type: cell-based; conditions: 50 ng/mL TNF-α, 1 μM or 5 μM
Protocol: as §5, §6

MuRF1 = assay: RT-PCR of muscle degrading protein mRNA in TNF-α-treated L6 myotubes: MuRF1; assay type: cell-based; conditions: 50 ng/mL TNF-α, 1 μM or 5 μM
Protocol: as §1, §2, §3, §4

p-4EBP1 = assay: Western blot of mRNA translation biomarkers in TNF-α-treated L6 myotubes: p-4EBP1; assay type: cell-based; conditions: 50 ng/mL TNF-α, 1 μM or 5 μM
Protocol: as §5, §6

CCCCCCCCCCCCC/C=C/[C@@H](O)[C@H](CO[C@@H]1OC(CO)[C@@H](O[C@@H]2OC(CO)[C@@H](O)C(O[C@]3(C(=O)O)CC(O)[C@@H](NC(C)=O)C([C@@H](O)[C@H](O)CO)O3)C2O)C(O)C1O)NC(=O)CCCCCCCCCCCCCCCCC (some centres unmarked) [Ganglioside GM3, ganglioside GM3]
increase of muscle (soleus) weight compared to the control group (Wistar rats): 23.56% | Average soleus weight (Wistar rats; right soleus, control 416.0 ± 19.57): 514.0 ± 18.4 mg | activity of mTOR in L6 muscle cells (mTOR): significantly increased | mRNA expression level of atrogin-1 in L6 muscle cells (atrogin-1): reduced | expression level of phosphorylated p-mTOR in L6 muscle cells (p-mTOR): increased | expression level of phosphorylated p-P70S6K in L6 muscle cells (p-p70S6K): increased | mRNA expression level of MuRF1 in L6 muscle cells (MuRF1): reduced | expression level of phosphorylated p-4EBP1 in L6 muscle cells (p-4EBP1): increased

Source: patent US12239652B2, “Composition for preventing or treating muscular diseases, or for improving muscular functions, containing ganglioside” (INDUSTRY-ACADEMIC COOPERATION FOUNDATION, YONSEI UNIVERSITY, priority 2018, dated 2025)
